From article PMC8156151 (The European Respiratory Journal, 2021)
Where two headings read alike, the source gives them in different places.

Key:
[1] = tested on: Osteopontin; test: Plasma biomarker osteopontin; format: in vivo, human; settings: for Osteopontin raw data, Mean (SD) / Osteopontin least square means % baseline±SEM: IPF patients
Description: (§1) All patients, investigators, sites and study sponsor personnel were blinded to the study group assignments throughout the study. Patients underwent study-specific assessments on days 2, 3, 7, 14 and 15, and a post-study assessment was carried out 26–30 days after the last day of the study period. Assessments included vital signs (supine blood pressure, pulse, oxygen saturation, oral temperature and respiratory rate), spirometry, 12-lead ECG, physical examination, laboratory safety screen (haematology, biochemistry, urinalysis and urinary drugs of abuse screen) and blood sampling for PK measurements. All adverse events and concomitant medications were recorded from the time of the screening visit until the post-study follow-up visit. BAL was performed at day −1 (24 h before the first dose) and at day 14 (2 h after the last dose). The BAL procedure was performed as per international guidelines. Briefly, 240 mL of 0.9% saline at room temperature was instilled in 40 mL aliquots into the right middle lobe and aspirated by suction after each aliquot.
(§2) BAL cells were separated from fluid by centrifugation, and cells were collected, stained with antibodies (supplementary material) and then fixed before analysis using a LSR Fortessa flow cytometer (Becton Dickinson, Franklin Lakes, NJ, USA). Data were analysed using FlowJo software (Tree Star, Ashland, OR, USA). Macrophages were identified as having high side scatter properties and human leukocyte antigen-DR positivity. Gal-3 expression (mean fluorescence intensity) was determined from the macrophage gate (supplementary figures S1 and S2). […] Samples were analysed by magnetic Luminex assay (R&D Systems, Minneapolis, MN, USA) or ELISA.
(§3) For part 2 of the study, placebos were combined from the three dose-specific cohorts into a pooled control group (n=9). For alveolar macrophage Gal-3 expression and the plasma biomarkers, ANCOVA was performed for percentage of baseline ((day 14/day 1)×100). The ANCOVA model included effects for treatment group and baseline (day 1) value. […] An additional analysis including dose as a continuous covariate was also performed. The Pearson correlation coefficient (r) and associated p-value were calculated for percentage of baseline and day 14 values between plasma biomarkers and alveolar macrophage Gal-3 expression. […] The analysis is exploratory and there was no pre-planned adjustment for multiple testing; the study was not powered for this. Alveolar macrophage Gal-3 expression was considered the primary exploratory analysis with the pre-selected biomarkers secondary. A Bonferroni correction for multiple testing of the secondary end-points comparing the 10 mg group with placebo gives a critical value of 0.0063. Data are presented as the difference in least square means with 95% confidence interval and p-value unless otherwise stated. All analyses were performed using SAS version 9.4 (SAS Institute, Cary, NC, USA). […]

[2] = tested on: MMP-7; test: Plasma biomarker MMP-7; format: in vivo, human; settings: for MMP-7 raw data, Mean (SD) / MMP-7 least square means % baseline±SEM: IPF patients
Description: as §1, §2, §3

[3] = tested on: HGF; test: Plasma biomarker HGF; format: in vivo, human; settings: for HGF raw data, Mean (SD) / HGF least square means % baseline±SEM: IPF patients
Description: as §1, §2, §3

[4] = biological target: Gal-3 (Homo sapiens, UniProt P17931); settings: for Galectin-3 (BAL) raw data, Mean (SD): Day 14
Sequence of Gal-3 (P17931 whole entry): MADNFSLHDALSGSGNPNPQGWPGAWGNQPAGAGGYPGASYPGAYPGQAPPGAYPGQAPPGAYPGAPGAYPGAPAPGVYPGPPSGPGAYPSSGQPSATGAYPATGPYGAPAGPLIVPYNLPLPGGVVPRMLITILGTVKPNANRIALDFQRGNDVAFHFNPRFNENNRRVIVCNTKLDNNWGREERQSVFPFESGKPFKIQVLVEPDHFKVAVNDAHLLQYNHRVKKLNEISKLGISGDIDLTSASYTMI
Description: as §1, §2
For part 2 of the study, placebos were combined from the three dose-specific cohorts into a pooled control group (n=9). For alveolar macrophage Gal-3 expression and the plasma biomarkers, ANCOVA was performed for percentage of baseline ((day 14/day 1)×100). The ANCOVA model included effects for treatment group and baseline (day 1) value. […] An additional analysis including dose as a continuous covariate was also performed. The Pearson correlation coefficient (r) and associated p-value were calculated for percentage of baseline and day 14 values between plasma biomarkers and alveolar macrophage Gal-3 expression. […] The analysis is exploratory and there was no pre-planned adjustment for multiple testing; the study was not powered for this. Alveolar macrophage Gal-3 expression was considered the primary exploratory analysis with the pre-selected biomarkers secondary. A Bonferroni correction for multiple testing of the secondary end-points comparing the 10 mg group with placebo gives a critical value of 0.0063. Data are presented as the difference in least square means with 95% confidence interval and p-value unless otherwise stated. All analyses were performed using SAS version 9.4 (SAS Institute, Cary, NC, USA).
BAL cells were separated from fluid by centrifugation and BAL cells were collected, stained with antibodies then fixed before analysis using a LSRFortessa™ flow cytometer (Becton Dickinson, NJ, USA). Data were analysed using FlowJo software (Becton Dickinson, NJ, USA). After exclusion of doublets and debris a sequential gating strategy was employed to identify cell populations based on surface marker expression. The antibodies used were Gal-3-FITC, CD19-PE, HLA-DR PEcy7, CD14-APC, CD16-pacific-blue, CD11b perCPcy5.5, […]
Biolegend except Gal-3-FITC which was from Cedarlane. Macrophages were identified as having high side scatter properties and HLA-DR positivity. Gal-3 expression (mean fluorescence intensity, MFI) was determined from the macrophage gate. Macrophage subsets were classed as M1, M2a and M2c based on the relative expression of CD206 and CD163 as […]
ve gate the relative % of neutrophils (CD19-/CD16+), B cells (CD19+), natural killer (NK) cells (CD56+), NK T-cells (NKT) cells (CD56+/CD3+), CD4 T cells (CD3+/CD4+) and CD8 T cells

[5] = tested on: CCL2 (MCP-1); test: Plasma biomarker CCL2; format: in vivo, human; settings: for CCL2 (MCP-1) raw data, Mean (SD) / CCL2 (MCP-1) least square means % baseline±SEM: IPF patients
Description: as §1, §2, §3

Gal-3 expression on BAL macrophages, percentage of baseline at day 14, difference compared with placebo ([4]; 3 mg dose group): −38.66%
Gal-3 expression on BAL macrophages, percentage of baseline at day 14, difference compared with placebo ([4]; 10 mg dose group): −44.63%
Gal-3 (BAL) Bayesian probability of effect ([4]; BAL macrophages, 10 mg vs placebo): 99.14
Gal-3 (BAL) difference in least square means % baseline (95% CI) ([4]; BAL macrophages, 10 mg vs placebo, ANCOVA): −44.6 (−80.4– −8.8) % baseline
Galectin-3 (BAL) raw data, Mean (SD) ([4]; IPF patients, BAL macrophages, 0.3 mg): 7794.8 (2990.48) pg/ml
Galectin-3 (BAL) raw data, Mean (SD) ([4]; IPF patients, BAL macrophages, 3 mg): 8058.6 (3001.05) pg/ml
Galectin-3 (BAL) raw data, Mean (SD) ([4]; IPF patients, BAL macrophages, 10 mg): 5237 (2033.86) pg/ml
Gal-3 (BAL) least square means % baseline±SEM ([4]; IPF patients, BAL macrophages, day 14, 0.3 mg once daily): 67.9±12.1 % baseline
Gal-3 (BAL) least square means % baseline±SEM ([4]; IPF patients, BAL macrophages, day 14, 3 mg once daily): 43.0±11.7 % baseline
Gal-3 (BAL) least square means % baseline±SEM ([4]; IPF patients, BAL macrophages, day 14, 10 mg once daily): 37.1±13.5 % baseline
Galectin-3 (BAL), analysis including dose as a continuous covariate: Estimate ([4]; IPF patients, BAL macrophages, percentage of baseline): -4.19
correlation between TD139 in AMs and percentage of baseline in surface macrophage Gal-3 (r) ([4]; IPF patients, day 14): −0.63 (95% CI −0.86– −0.18)
Emax (AM surface Gal-3 percentage of baseline) ([4]; fitted maximum effect model vs macrophage TD139 concentration, (95% CI)): 4.5 (−44.0–35.9)
Structure (SMILES): OC[C@H]1O[C@@H](S[C@@H]2O[C@H](CO)[C@H](O)[C@H](n3cc(-c4cccc(F)c4)nn3)[C@H]2O)[C@H](O)[C@@H](n2cc(-c3cccc(F)c3)nn2)[C@H]1O [TD139]
Osteopontin difference in least square means % baseline (95% CI) ([1]; 10 mg vs placebo, ANCOVA): −26.8 (−88.0–34.3) % baseline
Osteopontin raw data, Mean (SD) ([1]; Day 14, 0.3 mg): 37756 (20451.51) pg/ml
Osteopontin raw data, Mean (SD) ([1]; Day 14, 3 mg): 31032.4 (13230.48) pg/ml
Osteopontin raw data, Mean (SD) ([1]; Day 14, 10 mg): 48630.5 (37737.51) pg/ml
Osteopontin least square means % baseline±SEM ([1]; day 14, 0.3 mg once daily): 106.2±23.9 % baseline
Osteopontin least square means % baseline±SEM ([1]; day 14, 3 mg once daily): 84±23.7 % baseline
Osteopontin least square means % baseline±SEM ([1]; day 14, 10 mg once daily): 91.3±23.4 % baseline
MMP-7 difference in least square means % baseline (95% CI) ([2]; 10 mg vs placebo, ANCOVA): −82.0 (−237.9–73.9) % baseline
MMP-7 raw data, Mean (SD) ([2]; Day 14, 0.3 mg): 447.6 (205.21) pg/ml
MMP-7 raw data, Mean (SD) ([2]; Day 14, 3 mg): 1849.2 (2244.12) pg/ml
MMP-7 raw data, Mean (SD) ([2]; Day 14, 10 mg): 1130.6 (939.62) pg/ml
MMP-7 least square means % baseline±SEM ([2]; day 14, 0.3 mg once daily): 79.3±59.2 % baseline
MMP-7 least square means % baseline±SEM ([2]; day 14, 3 mg once daily): 82.3±58.4 % baseline
MMP-7 least square means % baseline±SEM ([2]; day 14, 10 mg once daily): 84.4±58.7 % baseline
HGF difference in least square means % baseline (95% CI) ([3]; 10 mg vs placebo, ANCOVA): −37.2 (−85.5–11.2) % baseline
HGF raw data, Mean (SD) ([3]; Day 14, 0.3 mg): 109.8 (23.24) pg/ml
HGF raw data, Mean (SD) ([3]; Day 14, 3 mg): 159.1 (110.2) pg/ml
HGF raw data, Mean (SD) ([3]; Day 14, 10 mg): 131.2 (44.47) pg/ml
HGF least square means % baseline±SEM ([3]; day 14, 0.3 mg once daily): 100.3±17.5 % baseline
HGF least square means % baseline±SEM ([3]; day 14, 3 mg once daily): 103.2±16.9 % baseline
HGF least square means % baseline±SEM ([3]; day 14, 10 mg once daily): 73.2±18.8 % baseline
CCL2 (MCP-1) difference in least square means % baseline (95% CI) ([5]; 10 mg vs placebo, ANCOVA): −71.7 (−187.1–43.7) % baseline
CCL2 (MCP-1) raw data, Mean (SD) ([5]; Day 14, 0.3 mg): 133.8 (15.06) pg/ml
CCL2 (MCP-1) raw data, Mean (SD) ([5]; Day 14, 3 mg): 137.6 (63.21) pg/ml
CCL2 (MCP-1) raw data, Mean (SD) ([5]; Day 14, 10 mg): 270.3 (348.45) pg/ml
CCL2 (MCP-1) least square means % baseline±SEM ([5]; day 14, 0.3 mg once daily): 126.7±39.3 % baseline
CCL2 (MCP-1) least square means % baseline±SEM ([5]; day 14, 3 mg once daily): 93.7±38.7 % baseline
CCL2 (MCP-1) least square means % baseline±SEM ([5]; day 14, 10 mg once daily): 89.4±43.5 % baseline
